What was measured:
Test in all cases: pIC50, kinobeads binding competition
Settings in all cases: cell material: Jurkat lysate
AAK1 = AAK1 (UniProt Q2M2I8)
BLK = BLK (UniProt P51451)
BRSK1 = biological target: T1, BRSK1 (UniProt Q8TDC3)
T1 sequence (whole entry): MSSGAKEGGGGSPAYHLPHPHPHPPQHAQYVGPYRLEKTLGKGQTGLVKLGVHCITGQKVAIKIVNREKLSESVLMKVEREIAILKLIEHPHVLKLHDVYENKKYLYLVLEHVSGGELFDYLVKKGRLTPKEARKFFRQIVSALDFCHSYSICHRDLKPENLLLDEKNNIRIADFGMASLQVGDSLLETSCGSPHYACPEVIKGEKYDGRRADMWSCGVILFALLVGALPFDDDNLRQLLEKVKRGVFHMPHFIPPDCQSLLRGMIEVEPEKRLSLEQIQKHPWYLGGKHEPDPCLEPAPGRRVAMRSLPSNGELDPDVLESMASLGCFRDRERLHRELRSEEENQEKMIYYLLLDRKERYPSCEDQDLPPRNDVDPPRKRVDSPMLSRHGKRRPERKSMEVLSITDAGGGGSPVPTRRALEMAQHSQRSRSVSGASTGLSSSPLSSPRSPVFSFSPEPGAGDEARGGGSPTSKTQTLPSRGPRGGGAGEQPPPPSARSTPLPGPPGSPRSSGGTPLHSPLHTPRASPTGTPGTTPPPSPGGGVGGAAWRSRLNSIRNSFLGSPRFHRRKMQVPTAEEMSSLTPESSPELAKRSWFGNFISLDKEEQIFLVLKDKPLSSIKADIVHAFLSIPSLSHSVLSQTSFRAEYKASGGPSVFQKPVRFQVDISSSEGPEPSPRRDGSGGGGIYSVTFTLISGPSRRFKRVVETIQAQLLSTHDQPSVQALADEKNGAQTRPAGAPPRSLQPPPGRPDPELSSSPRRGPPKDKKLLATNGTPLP

HIPK3 = HIPK3 (UniProt Q9H422)
UniProt Q9BUB5 = biological target: UniProt Q9BUB5
UniProt Q9NSY1 = biological target: UniProt Q9NSY1
TEC = biological target: T2, TEC (UniProt P42680)
T2 sequence (whole entry): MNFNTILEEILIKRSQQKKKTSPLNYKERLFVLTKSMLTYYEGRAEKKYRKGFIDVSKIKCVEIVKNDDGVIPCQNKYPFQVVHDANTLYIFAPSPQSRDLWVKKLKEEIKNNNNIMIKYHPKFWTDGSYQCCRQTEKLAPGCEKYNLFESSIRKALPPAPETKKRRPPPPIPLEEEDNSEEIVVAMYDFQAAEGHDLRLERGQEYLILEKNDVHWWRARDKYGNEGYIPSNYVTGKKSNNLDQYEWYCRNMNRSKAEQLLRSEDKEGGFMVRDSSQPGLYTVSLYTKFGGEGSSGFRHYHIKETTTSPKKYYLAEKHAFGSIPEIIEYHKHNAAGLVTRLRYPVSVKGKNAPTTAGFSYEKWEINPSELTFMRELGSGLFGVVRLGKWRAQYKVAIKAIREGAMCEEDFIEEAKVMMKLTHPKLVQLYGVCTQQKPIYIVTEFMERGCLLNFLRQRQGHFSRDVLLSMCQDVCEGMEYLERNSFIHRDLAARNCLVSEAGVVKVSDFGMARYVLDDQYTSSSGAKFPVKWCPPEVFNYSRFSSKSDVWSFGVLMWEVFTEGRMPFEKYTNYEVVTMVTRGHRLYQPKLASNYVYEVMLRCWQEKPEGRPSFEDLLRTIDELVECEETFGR

PDIK1L = PDIK1L (UniProt Q8N165)
UniProt Q9Y2U5 = biological target: T3, UniProt Q9Y2U5
T3 sequence (whole entry): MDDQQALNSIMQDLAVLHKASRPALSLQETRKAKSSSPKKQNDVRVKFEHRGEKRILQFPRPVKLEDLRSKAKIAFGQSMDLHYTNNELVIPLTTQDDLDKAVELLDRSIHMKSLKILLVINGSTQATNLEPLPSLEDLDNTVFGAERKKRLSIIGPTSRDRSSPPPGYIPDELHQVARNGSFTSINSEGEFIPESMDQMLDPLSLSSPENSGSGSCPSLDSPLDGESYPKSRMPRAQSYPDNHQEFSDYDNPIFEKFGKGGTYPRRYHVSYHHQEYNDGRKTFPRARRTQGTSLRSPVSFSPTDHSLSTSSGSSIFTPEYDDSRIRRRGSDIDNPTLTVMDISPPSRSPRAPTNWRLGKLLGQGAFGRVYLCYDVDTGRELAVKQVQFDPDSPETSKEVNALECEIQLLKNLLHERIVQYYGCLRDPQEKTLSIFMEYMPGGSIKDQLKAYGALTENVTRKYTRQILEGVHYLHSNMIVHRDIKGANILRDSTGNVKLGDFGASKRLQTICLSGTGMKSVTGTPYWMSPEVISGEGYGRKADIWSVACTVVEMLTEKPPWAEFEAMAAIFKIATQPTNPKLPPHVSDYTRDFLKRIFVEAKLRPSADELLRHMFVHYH

UniProt Q9H0K1 = biological target: UniProt Q9H0K1
PIP4K2A = biological target: T4, PIP4K2A (UniProt P48426)
T4 sequence (whole entry): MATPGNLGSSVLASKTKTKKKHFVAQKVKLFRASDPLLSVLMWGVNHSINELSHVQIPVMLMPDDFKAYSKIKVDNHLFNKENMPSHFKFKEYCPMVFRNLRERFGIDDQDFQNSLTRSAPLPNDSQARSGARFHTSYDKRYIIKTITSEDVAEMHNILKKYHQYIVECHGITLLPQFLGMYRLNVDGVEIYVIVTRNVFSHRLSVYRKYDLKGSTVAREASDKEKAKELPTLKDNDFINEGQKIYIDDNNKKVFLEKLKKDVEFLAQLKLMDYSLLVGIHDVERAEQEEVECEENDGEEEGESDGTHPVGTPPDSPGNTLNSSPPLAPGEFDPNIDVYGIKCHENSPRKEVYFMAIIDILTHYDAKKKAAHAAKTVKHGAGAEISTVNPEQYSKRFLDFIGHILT

Measured: pIC50

Sequence of HIPK3 (Q9H422 whole entry, looked up): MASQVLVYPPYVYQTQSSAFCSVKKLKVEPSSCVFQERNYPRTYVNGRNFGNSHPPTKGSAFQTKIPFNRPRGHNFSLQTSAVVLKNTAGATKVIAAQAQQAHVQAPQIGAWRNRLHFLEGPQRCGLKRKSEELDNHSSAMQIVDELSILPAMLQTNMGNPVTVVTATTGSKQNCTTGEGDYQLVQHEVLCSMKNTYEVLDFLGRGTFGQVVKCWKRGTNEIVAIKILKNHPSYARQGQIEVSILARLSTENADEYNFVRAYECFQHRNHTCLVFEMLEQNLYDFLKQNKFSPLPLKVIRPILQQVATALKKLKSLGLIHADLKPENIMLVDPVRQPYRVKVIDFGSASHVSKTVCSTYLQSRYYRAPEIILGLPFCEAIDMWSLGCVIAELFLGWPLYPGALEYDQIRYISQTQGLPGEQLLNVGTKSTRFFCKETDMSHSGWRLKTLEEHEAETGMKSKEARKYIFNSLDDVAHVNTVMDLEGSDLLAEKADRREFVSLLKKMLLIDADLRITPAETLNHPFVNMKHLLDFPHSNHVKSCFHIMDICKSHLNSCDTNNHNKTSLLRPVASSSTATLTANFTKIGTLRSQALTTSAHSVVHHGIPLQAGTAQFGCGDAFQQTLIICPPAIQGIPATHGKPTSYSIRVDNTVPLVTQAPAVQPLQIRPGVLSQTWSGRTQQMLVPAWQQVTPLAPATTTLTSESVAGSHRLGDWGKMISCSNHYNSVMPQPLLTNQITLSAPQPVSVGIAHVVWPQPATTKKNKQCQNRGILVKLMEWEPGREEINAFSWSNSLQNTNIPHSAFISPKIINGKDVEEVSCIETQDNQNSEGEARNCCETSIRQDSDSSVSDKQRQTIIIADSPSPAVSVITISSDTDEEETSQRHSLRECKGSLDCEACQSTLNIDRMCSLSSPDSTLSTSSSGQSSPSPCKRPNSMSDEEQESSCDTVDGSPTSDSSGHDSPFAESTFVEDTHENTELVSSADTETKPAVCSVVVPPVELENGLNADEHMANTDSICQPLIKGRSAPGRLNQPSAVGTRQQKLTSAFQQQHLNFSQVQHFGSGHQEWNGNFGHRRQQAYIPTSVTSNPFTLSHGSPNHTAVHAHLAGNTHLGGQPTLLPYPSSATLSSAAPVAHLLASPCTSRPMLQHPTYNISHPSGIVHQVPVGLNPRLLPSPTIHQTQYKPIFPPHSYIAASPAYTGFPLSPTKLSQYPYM
Sequence of UniProt Q9BUB5 (Q9BUB5 whole entry, looked up): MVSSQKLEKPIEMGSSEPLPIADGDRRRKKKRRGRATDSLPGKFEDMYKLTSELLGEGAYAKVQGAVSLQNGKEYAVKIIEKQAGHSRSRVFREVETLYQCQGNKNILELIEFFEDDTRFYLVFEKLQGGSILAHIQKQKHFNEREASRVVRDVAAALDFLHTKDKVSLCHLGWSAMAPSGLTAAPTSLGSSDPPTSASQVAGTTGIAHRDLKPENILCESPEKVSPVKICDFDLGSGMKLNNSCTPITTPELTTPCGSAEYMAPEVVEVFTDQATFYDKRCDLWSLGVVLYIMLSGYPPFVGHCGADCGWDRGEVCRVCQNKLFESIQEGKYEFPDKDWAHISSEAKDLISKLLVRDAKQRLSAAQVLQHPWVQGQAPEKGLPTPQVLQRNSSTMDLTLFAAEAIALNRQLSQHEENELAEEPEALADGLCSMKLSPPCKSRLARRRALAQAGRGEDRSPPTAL
Sequence of AAK1 (Q2M2I8 whole entry, looked up): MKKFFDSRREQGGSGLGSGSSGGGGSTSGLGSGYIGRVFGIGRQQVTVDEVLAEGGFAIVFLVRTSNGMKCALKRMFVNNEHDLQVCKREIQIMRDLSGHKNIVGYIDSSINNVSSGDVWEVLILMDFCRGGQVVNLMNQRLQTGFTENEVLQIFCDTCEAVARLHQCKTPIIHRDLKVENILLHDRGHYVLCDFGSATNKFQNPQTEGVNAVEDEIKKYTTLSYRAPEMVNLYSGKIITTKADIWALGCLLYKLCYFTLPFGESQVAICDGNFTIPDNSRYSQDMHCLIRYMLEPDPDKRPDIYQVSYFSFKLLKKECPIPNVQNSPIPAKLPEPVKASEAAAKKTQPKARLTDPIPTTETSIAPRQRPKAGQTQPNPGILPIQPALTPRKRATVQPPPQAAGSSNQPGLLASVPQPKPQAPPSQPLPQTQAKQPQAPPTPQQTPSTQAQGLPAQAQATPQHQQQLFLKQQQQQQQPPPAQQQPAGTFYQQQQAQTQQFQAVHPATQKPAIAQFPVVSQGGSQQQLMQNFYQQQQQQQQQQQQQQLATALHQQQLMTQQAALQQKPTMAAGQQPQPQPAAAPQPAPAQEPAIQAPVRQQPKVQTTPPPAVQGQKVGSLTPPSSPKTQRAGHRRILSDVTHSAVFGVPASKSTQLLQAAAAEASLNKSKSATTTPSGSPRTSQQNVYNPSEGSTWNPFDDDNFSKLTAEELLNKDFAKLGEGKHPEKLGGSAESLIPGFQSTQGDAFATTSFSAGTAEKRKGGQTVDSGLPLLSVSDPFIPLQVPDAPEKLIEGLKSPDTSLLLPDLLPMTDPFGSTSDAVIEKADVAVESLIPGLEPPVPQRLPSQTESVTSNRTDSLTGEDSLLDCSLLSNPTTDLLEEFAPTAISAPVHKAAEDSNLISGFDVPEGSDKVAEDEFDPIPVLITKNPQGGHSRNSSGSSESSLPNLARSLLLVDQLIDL
Sequence of UniProt Q9NSY1 (Q9NSY1 whole entry, looked up): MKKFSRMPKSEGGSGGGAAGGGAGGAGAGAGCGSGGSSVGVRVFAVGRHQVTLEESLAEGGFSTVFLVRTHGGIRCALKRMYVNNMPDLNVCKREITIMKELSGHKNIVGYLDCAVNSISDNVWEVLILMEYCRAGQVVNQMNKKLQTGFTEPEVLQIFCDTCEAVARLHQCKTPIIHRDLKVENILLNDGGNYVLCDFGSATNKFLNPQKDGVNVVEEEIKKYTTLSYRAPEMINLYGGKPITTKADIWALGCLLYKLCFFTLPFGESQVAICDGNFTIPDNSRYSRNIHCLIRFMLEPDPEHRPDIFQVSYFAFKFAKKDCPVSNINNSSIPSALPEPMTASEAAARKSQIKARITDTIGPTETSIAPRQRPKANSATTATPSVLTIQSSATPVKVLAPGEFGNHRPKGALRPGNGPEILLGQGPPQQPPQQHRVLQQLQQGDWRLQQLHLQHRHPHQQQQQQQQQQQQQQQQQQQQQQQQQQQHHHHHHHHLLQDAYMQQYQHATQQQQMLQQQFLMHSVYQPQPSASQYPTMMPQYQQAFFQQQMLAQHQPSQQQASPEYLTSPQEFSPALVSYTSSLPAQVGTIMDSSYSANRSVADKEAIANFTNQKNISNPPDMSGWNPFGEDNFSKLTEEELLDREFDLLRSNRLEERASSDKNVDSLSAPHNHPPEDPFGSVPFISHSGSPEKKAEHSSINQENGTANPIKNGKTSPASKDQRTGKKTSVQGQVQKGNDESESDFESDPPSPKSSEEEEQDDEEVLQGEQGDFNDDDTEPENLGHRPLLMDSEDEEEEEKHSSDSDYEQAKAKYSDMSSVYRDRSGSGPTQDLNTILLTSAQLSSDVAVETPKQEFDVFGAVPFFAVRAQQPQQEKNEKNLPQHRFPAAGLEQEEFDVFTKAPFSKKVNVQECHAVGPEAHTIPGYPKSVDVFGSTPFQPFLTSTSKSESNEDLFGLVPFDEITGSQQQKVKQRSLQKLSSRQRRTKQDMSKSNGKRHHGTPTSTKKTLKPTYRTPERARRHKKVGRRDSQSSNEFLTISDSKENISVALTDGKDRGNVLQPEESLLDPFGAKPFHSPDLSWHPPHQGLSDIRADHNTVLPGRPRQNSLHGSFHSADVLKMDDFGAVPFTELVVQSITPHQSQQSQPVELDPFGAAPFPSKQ
Sequence of BLK (P51451 whole entry, looked up): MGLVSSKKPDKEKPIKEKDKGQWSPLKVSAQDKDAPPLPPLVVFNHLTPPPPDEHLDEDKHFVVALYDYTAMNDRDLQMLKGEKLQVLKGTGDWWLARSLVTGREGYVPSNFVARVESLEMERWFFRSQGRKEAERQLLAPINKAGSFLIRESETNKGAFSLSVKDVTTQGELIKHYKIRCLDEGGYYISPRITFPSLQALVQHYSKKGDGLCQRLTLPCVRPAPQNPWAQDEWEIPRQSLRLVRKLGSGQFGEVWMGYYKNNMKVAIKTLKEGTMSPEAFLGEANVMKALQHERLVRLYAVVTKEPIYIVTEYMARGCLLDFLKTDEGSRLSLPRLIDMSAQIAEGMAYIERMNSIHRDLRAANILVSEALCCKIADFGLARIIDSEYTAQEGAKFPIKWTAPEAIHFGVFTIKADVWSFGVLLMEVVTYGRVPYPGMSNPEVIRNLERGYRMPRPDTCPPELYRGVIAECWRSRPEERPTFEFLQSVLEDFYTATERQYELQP
Sequence of PDIK1L (Q8N165 whole entry): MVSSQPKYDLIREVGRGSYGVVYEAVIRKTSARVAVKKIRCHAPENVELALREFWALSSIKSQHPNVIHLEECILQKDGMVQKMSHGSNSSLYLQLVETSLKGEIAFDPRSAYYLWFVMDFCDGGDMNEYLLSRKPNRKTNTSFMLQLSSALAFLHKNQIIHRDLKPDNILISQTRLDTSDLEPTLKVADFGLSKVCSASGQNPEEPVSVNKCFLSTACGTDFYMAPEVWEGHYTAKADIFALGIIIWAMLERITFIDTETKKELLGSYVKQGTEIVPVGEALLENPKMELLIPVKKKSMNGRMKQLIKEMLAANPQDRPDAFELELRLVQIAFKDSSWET

CCc1cnn2c(NCc3ccc[n+]([O-])c3)cc(N3CCCC[C@H]3CCO)nc12 [dinaciclib]
< 4.52: all assays above
